Measurements as given in patent publication US20250197359A1, “CANNABINOID RECEPTOR MODULATING COMPOUNDS” (The U.S.A., as Represented by the Secretary, Department of …, priority 2022, published 2025).

Key:
[1] = biological target: T1, Brain/CB1 (Mus musculus, UniProt P47746); experiment: Functional GTPγS binding, Brain/CB1; type: biochemical
T1 construct: from tissue; host or cells: mouse brain membranes
From the text: Furthermore, the intermediates urea compounds 8a-m were chlorinated with phosphorus oxychloride in the presence of DIPEA base to form imidoyl chloride intermediate and reacted with acetamidine hydrochloride/methyl carbamimidothioate iodide/methyl carbamimidoselenoate iodide and other amines to furnish the target compounds (10a-34b) (Scheme 2, FIG. 2, Scheme 5, FIG. 5). The urea derivatives were converted to the thiourea derivatives 9a-9d by employing sodium thiosulfate. Compound 8a-b, 8e-f were converted to corresponding thiourea by employing sodium thiosulfate dissolved in water dioxane mixture and the reaction was heated to 85° C. for 2 h. […] The binding constant for the synthesized compounds were determined by using radioligand binding assay in mouse brain membranes as well as the target compounds were evaluated in vitro at the human CB1 receptor, stably expressed into Chinese hamster ovary (CHO) cells as well as mouse brain membrane CB1.

[2] = biological target: CB1 (UniProt P21554); experiment: CB1 radioligand binding assay; design: species or system human; settings: read-out: Ki (CB1)
Experimental: The target compounds were evaluated in vitro at the human CB1 receptor, stably expressed into Chinese hamster ovary (CHO) cells by utilizing radioligand binding studies.
The binding constant for the synthesized compounds were determined by using radioligand binding assay in mouse brain membranes as well as the target compounds were evaluated in vitro at the human CB1 receptor, stably expressed into Chinese hamster ovary (CHO) cells as well as mouse brain membrane CB1. […]

T1 sequence (P47746 whole entry): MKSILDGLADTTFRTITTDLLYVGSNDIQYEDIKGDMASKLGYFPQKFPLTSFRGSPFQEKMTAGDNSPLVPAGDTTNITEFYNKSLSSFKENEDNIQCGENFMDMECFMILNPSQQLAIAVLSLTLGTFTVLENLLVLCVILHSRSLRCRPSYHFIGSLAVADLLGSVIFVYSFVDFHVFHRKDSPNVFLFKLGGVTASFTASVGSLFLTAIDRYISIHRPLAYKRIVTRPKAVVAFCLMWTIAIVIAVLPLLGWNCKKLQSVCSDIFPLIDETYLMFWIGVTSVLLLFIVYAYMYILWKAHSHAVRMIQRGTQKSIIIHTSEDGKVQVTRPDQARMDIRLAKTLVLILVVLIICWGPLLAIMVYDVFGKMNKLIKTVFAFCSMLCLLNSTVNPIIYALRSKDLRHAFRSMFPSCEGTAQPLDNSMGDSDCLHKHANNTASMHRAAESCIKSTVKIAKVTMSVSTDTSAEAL

Compound	IC50 [1] [µM]	Ki [2] [µM]
C/C(N)=N\C(=N\S(=O)(=O)c1ccc(C(F)(F)F)cc1)N1CCC(c2ccccc2)C(c2ccc(Cl)cc2)=N1 (single isomer, unassigned) [Compound 10bE1, (Z)—N—((E)-1-aminoethylidene)-3-(4-chlorophenyl)-4-phenyl-N′-((4-(trifluoromethyl)phenyl)sulfonyl)-5,6-dihydropyridazine-1 (4H)-carboximidamide]	> 1	–
C/C(N)=N\C(=N\S(=O)(=O)c1ccc(C(F)(F)F)cc1)N1CCC(c2ccccc2)C(c2ccc(Cl)cc2)=N1 (single isomer, unassigned) [Compound 10bE2, (Z)—N—((E)-1-aminoethylidene)-3-(4-chlorophenyl)-4-phenyl-N′-((4-(trifluoromethyl)phenyl)sulfonyl)-5,6-dihydropyridazine-1 (4H)-carboximidamide]	0.034	–
CC(C)(C)/C(N)=N/C(=N/S(=O)(=O)c1ccc(C(F)(F)F)cc1)N1CCC(c2ccccc2)C(c2ccc(Cl)cc2)=N1 (single isomer, unassigned) [Compound 10oE1, (Z)—N—((Z)-1-amino-2,2-dimethylpropylidene)-3-(4-chlorophenyl)-4-phenyl-N′-((4-(trifluoromethyl)phenyl)sulfonyl)-5,6-dihydropyridazine-1 (4H)-carboximidamide]	0.222	0.351
CC(C)(C)/C(N)=N/C(=N/S(=O)(=O)c1ccc(C(F)(F)F)cc1)N1CCC(c2ccccc2)C(c2ccc(Cl)cc2)=N1 (single isomer, unassigned) [Compound 10oE2, (Z)—N—((Z)-1-amino-2,2-dimethylpropylidene)-3-(4-chlorophenyl)-4-phenyl-N′-((4-(trifluoromethyl)phenyl)sulfonyl)-5,6-dihydropyridazine-1 (4H)-carboximidamide]	0.011	0.0073
N/C(=N\C(=N\S(=O)(=O)c1ccc(C(F)(F)F)cc1)N1CCC(c2ccccc2)C(c2ccc(Cl)cc2)=N1)c1ccccc1F (single isomer, unassigned) [Compound 10tE1, (Z)—N—((Z)-amino (2-fluorophenyl)methylene)-3-(4-chlorophenyl)-4-phenyl-N′-((4-(trifluoromethyl)phenyl)sulfonyl)-5,6-dihydropyridazine-1 (4H)-carboximidamide]	0.051	–
N/C(=N\C(=N\S(=O)(=O)c1ccc(C(F)(F)F)cc1)N1CCC(c2ccccc2)C(c2ccc(Cl)cc2)=N1)c1ccccc1F (single isomer, unassigned) [Compound 10tE2, (Z)—N—((Z)-amino (2-fluorophenyl)methylene)-3-(4-chlorophenyl)-4-phenyl-N′-((4-(trifluoromethyl)phenyl)sulfonyl)-5,6-dihydropyridazine-1 (4H)-carboximidamide]	0.018	–
N/C(=N\C(=N\S(=O)(=O)c1ccc(C(F)(F)F)cc1)N1CCC(c2ccccc2)C(c2ccc(Cl)cc2)=N1)c1ccccn1 (single isomer, unassigned) [Compound 10vE1, (Z)—N—((Z)-amino (pyridin-2-yl)methylene)-3-(4-chlorophenyl)-4-phenyl-N′-((4-(trifluoromethyl)phenyl)sulfonyl)-5,6-dihydropyridazine-1 (4H)-carboximidamide]	0.107	0.0115
N/C(=N\C(=N\S(=O)(=O)c1ccc(C(F)(F)F)cc1)N1CCC(c2ccccc2)C(c2ccc(Cl)cc2)=N1)c1ccccn1 (single isomer, unassigned) [Compound 10vE2, (Z)—N—((Z)-amino (pyridin-2-yl)methylene)-3-(4-chlorophenyl)-4-phenyl-N′-((4-(trifluoromethyl)phenyl)sulfonyl)-5,6-dihydropyridazine-1 (4H)-carboximidamide]	0.024	0.005
CCN(CC)/C(N)=N/C(=N/S(=O)(=O)c1ccc(C(F)(F)F)cc1)N1CCC(c2ccccc2)C(c2ccc(Cl)cc2)=N1 (centres unmarked) [Compound 18, (Z)—N—((E)-amino (diethylamino)methylene)-3-(4-chlorophenyl)-4-phenyl-N′-((4-(trifluoromethyl)phenyl)sulfonyl)-5,6-dihydropyridazine-1 (4H)-carboximidamide]	–	0.536
CC(C)(C)OC(=O)N/C(N)=N\C(=N\S(=O)(=O)c1ccc(C(F)(F)F)cc1)N1CCC(c2ccccc2)C(c2ccc(Cl)cc2)=N1 (centres unmarked) [Compound 19]	–	0.383
O=S(=O)(/N=C(\NC12CC3CC(CC(C3)C1)C2)N1CCC(c2ccccc2)C(c2ccc(Cl)cc2)=N1)c1ccc(C(F)(F)F)cc1 (centres unmarked) [Compound 20, (E)-N-((3s,5s,7s)-adamantan-1-yl)-3-(4-chlorophenyl)-4-phenyl-N′-((4-(trifluoromethyl)phenyl)sulfonyl)-5,6-dihydropyridazine-1 (4H)-carboximidamide]	–	0.0809
O=C(O)CCCN/C(=N/S(=O)(=O)c1ccc(C(F)(F)F)cc1)N1CCC(c2ccccc2)C(c2ccc(Cl)cc2)=N1 (centres unmarked) [Compound 21, (Z)-4-(3-(4-chlorophenyl)-4-phenyl-N′-((4-(trifluoromethyl)phenyl)sulfonyl)-1,4,5,6-tetrahydropyridazine-1-carboximidamido) butanoic acid]	–	0.579
NC(=S)NN/C(=N/S(=O)(=O)c1ccc(C(F)(F)F)cc1)N1CCC(c2ccccc2)C(c2ccc(Cl)cc2)=N1 (centres unmarked) [Compound 22, (Z)-2-((3-(4-chlorophenyl)-4-phenyl-5,6-dihydropyridazin-1 (4H)-yl)(((4-(trifluoromethyl)phenyl)sulfonyl)imino)methyl) hydrazine-1-carbothioamide]	–	0.575

Further lines, results first:

IC50 [1] [µM]	Ki [2] [µM]	Compound
> 1	–	CC(C)C(N/C(=N/S(=O)(=O)c1ccc(C(F)(F)F)cc1)N1CCC(c2ccccc2)C(c2ccc(Br)cc2)=N1)C(N)=O (single isomer, unassigned) [Compound 26a, (Z)-2-(3-(4-bromophenyl)-4-phenyl-N′-((4-(trifluoromethyl)phenyl)sulfonyl)-1,4,5,6-tetrahydropyridazine-1-carboximidamido)-3-methylbutanamide]
0.0095	–	CC(C)C(N/C(=N/S(=O)(=O)c1ccc(C(F)(F)F)cc1)N1CCC(c2ccccc2)C(c2ccc(Br)cc2)=N1)C(N)=O (single isomer, unassigned) [Compound 26b, (Z)-2-(3-(4-bromophenyl)-4-phenyl-N′-((4-(trifluoromethyl)phenyl)sulfonyl)-1,4,5,6-tetrahydropyridazine-1-carboximidamido)-3-methylbutanamide]
> 1	–	COc1ccc(S(=O)(=O)/N=C(/NC(C(N)=O)C(C)C)N2CCC(c3ccccc3)C(c3ccc(Cl)cc3)=N2)cc1 (single isomer, unassigned) [Compound 27a, (Z)-2-(3-(4-chlorophenyl)-N′-((4-methoxyphenyl)sulfonyl)-4-phenyl-1,4,5,6-tetrahydropyridazine-1-carboximidamido)-3-methylbutanamide]
0.051	–	COc1ccc(S(=O)(=O)/N=C(/NC(C(N)=O)C(C)C)N2CCC(c3ccccc3)C(c3ccc(Cl)cc3)=N2)cc1 (single isomer, unassigned) [Compound 27b, (Z)-2-(3-(4-chlorophenyl)-N′-((4-methoxyphenyl)sulfonyl)-4-phenyl-1,4,5,6-tetrahydropyridazine-1-carboximidamido)-3-methylbutanamide]
> 1	–	CC(C)C(N/C(=N/S(=O)(=O)c1ccccc1)N1CCC(c2ccccc2)C(c2ccc(Cl)cc2)=N1)C(N)=O (single isomer, unassigned) [Compound 28a, (Z)-2-(3-(4-chlorophenyl)-4-phenyl-N′-(phenylsulfonyl)-1,4,5,6-tetrahydropyridazine-1-carboximidamido)-3-methylbutanamide]
0.336	–	CC(C)C(N/C(=N/S(=O)(=O)c1ccccc1)N1CCC(c2ccccc2)C(c2ccc(Cl)cc2)=N1)C(N)=O (single isomer, unassigned) [Compound 28b, (Z)-2-(3-(4-chlorophenyl)-4-phenyl-N′-(phenylsulfonyl)-1,4,5,6-tetrahydropyridazine-1-carboximidamido)-3-methylbutanamide]
> 1	0.907	CC(C)C(N/C(=N/S(=O)(=O)c1ccc(Cl)cc1)N1CCC(c2ccccc2)C(c2ccc(Cl)cc2)=N1)C(N)=O (single isomer, unassigned) [Compound 30a, (Z)-2-(3-(4-chlorophenyl)-N′-((4-chlorophenyl)sulfonyl)-4-phenyl-1,4,5,6-tetrahydropyridazine-1-carboximidamido)-3-methylbutanamide]
0.039	0.0182	CC(C)C(N/C(=N/S(=O)(=O)c1ccc(Cl)cc1)N1CCC(c2ccccc2)C(c2ccc(Cl)cc2)=N1)C(N)=O (single isomer, unassigned) [Compound 30b, (Z)-2-(3-(4-chlorophenyl)-N′-((4-chlorophenyl)sulfonyl)-4-phenyl-1,4,5,6-tetrahydropyridazine-1-carboximidamido)-3-methylbutanamide]
0.863	0.0969	CC(N/C(=N/S(=O)(=O)c1ccc(C(F)(F)F)cc1)N1CCC(c2ccccc2)C(c2ccc(Cl)cc2)=N1)C(N)=O (single isomer, unassigned) [Compound 31a, (Z)-2-(3-(4-chlorophenyl)-4-phenyl-N′-((4-(trifluoromethyl)phenyl)sulfonyl)-1,4,5,6-tetrahydropyridazine-1-carboximidamido) propenamide]
